# Assay results: patent US20230303570A1, “KINASE INHIBITORS AND USES THEREOF” (ABM Therapeutics Corporation, priority 2020, published 2023)
# Biological target: HPK1 (MAP4K1) (Homo sapiens, UniProt Q92918)
# Assay: HPK1 (MAP4K1) kinase Lantha screen assay
# Type: biochemical
# Protocol: The effect of the compounds on the activity of HPK1 (MAP4K1) kinase were assessed by Lantha screen assay. • 1. 1×kinase buffer was prepared (50 mM HEPES, pH 7.5, 10 mM MgCl2, 4 mM DT • 2. Compound and assay plates preparation: • 2-1) The compound was diluted to 100× of the final desired highest inhibitor concentration in reaction by 100% DMSO. For example, if a compound was tested at […], then a solution at 500 µM in DMSO was prepared in this step. • 2-2) For each tested compound, the compound was transferred in tubes to one well on a 96-well storage plate and serially diluted by transferring […] of 100% DMSO in the next well and so forth for a total of 6 concentrations. • 2-3) 100 μl of 100% DMSO were added to two empty wells to serve as no compound control and no enzyme control in the same 96-well plate. The resulting plate was labeled as the source plate. • 2-4) 40 μl of compound from source plate were transferred to a new 384-well Echo plate as the intermediate plate. 100 nl of each well from the 384-well Echo plate were transferred to a 384-well assay plate in duplicates. For example, A1 of the 384-well Echo plate was transferred to A1 and A2 of the 384-well plate. A2 of the 384-well Echo plate was transferred to A3 and A4 of the 384-well plate, and so on; • 3. Kinase reaction: a solution of MAP4K1 in 1× kinase buffer at 2-fold the final concentration of each reagent in the assay was prepared. 5 μl of kinase solution was added to each well of the assay plate, except for control wells without enzyme (add 5 μl of 1× kinase buffer instead). The plate was then shaken, then incubated at room temperature for 10 min. A substrate solution of Fluorescein-PKC and ATP in 1× kinase reaction buffer at 2-fold of the final concentration of each reagent desired in the assay was prepared. 5 μl of substrate solution was added to each well of the assay plate to start reaction. The plate was shaken, then covered, and incubated at room temperature for 90 minutes.
# Kinase detection: detection solution of 2-fold of final concentration in Antibody Dilution Buffer was prepared. 10 μl of detection solution was added to each well of the assay plate to stop the reaction. The mixtures were mixed briefly with Centrifuge and incubated at room temperature 60 minutes before reading on a plate reader for fluorescence. Data was collected on Envision with excitation at 340 nm and emission at 520 nm and 495 nm.
# Chain of HPK1 (MAP4K1) (Q92918 whole entry, species assumed): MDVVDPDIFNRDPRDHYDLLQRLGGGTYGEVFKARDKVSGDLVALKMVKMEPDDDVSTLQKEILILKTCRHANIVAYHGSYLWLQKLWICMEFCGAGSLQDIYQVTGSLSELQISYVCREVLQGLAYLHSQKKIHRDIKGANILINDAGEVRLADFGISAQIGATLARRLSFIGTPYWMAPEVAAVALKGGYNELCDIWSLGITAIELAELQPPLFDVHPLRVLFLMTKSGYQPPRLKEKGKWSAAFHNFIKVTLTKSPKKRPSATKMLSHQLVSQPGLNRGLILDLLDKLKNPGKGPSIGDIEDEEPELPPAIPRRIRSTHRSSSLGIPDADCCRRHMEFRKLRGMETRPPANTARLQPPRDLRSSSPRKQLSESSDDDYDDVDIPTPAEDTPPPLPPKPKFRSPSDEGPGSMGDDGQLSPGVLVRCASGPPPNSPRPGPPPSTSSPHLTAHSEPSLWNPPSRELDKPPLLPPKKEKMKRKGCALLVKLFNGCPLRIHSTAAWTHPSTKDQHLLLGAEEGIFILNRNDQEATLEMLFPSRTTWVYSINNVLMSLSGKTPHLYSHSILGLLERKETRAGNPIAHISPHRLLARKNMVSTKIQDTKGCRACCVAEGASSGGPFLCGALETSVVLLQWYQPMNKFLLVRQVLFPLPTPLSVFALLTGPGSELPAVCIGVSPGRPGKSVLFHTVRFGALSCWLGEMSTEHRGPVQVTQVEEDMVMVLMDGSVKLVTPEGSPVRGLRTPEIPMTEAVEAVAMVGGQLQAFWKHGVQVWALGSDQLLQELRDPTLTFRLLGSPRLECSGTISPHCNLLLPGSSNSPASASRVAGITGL
row,SMILES,IC50 [nM]
1,"CNc1ncc2c(n1)N1CCN=C1C(c1cc(NC(=O)c3nccc(C(F)(F)F)c3Cl)ccc1C)=C2 [Compound 152, 3-chloro-N-(4-methyl-3-(2-(methylamino)-8,9-dihydroimidazo[1′,2′:1,6]pyrido[2,3-d]pyrimidin-6-yl)phenyl)-4-(trifluoromethyl)picolinamide]",100 to 10000
2,"CNc1ncc2c(n1)N1CCN=C1C(c1cc(NC(=O)c3cc(C(F)(F)F)c[nH]c3=O)ccc1C)=C2 [Compound 153, N-(4-methyl-3-(2-(methylamino)-8,9-dihydroimidazo[1′,2′:1,6]pyrido[2,3-d]pyrimidin-6-yl)phenyl)-2-oxo-5-(trifluoromethyl)-1,2-dihydropyridine-3-carboxamide]",100 to 10000
3,"CNc1ncc2c(n1)N1CCN=C1C(c1cc(NC(=O)C3CC(C(F)(F)F)CCN3)ccc1C)=C2 (stereo not drawn) [Compound 154, N-(4-methyl-3-(2-(methylamino)-8,9-dihydroimidazo[1′,2′:1,6]pyrido[2,3-d]pyrimidin-6-yl)phenyl)-4-(trifluoromethyl)piperidine-2-carboxamide]",> 10000
4,"CNc1ncc2c(n1)N1CCN=C1C(c1cc(NC(=O)C3CCNC(C(F)(F)F)C3)ccc1C)=C2 (stereo not drawn) [Compound 155, N-(4-methyl-3-(2-(methylamino)-8,9-dihydroimidazo[1′,2′:1,6]pyrido[2,3-d]pyrimidin-6-yl)phenyl)-2-(trifluoromethyl)piperidine-4-carboxamide]",> 10000
5,"CNc1ncc2c(n1)N1CCN=C1C(c1cc(NC(=O)c3cc(C(F)(F)F)cc(-n4cnc(C)c4)n3)ccc1C)=C2 [Compound 157, 6-(4-methyl-1H-imidazol-1-yl)-N-(4-methyl-3-(2-(methylamino)-8,9-dihydroimidazo[1′,2′:1,6]pyrido[2,3-d]pyrimidin-6-yl)phenyl)-4-(trifluoromethyl)picolinamide]",100 to 10000
6,"CNc1ncc2c(n1)N1CCN=C1C(c1cc(NC(=O)c3cc(C#N)ccn3)ccc1C)=C2 [Compound 159, 4-cyano-N-(4-methyl-3-(2-(methylamino)-8,9-dihydroimidazo[1′,2′:1,6]pyrido[2,3-d]pyrimidin-6-yl)phenyl)picolinamide]",100 to 10000
7,"CNc1ncc2c(n1)N1CCN=C1C(c1cc(NC(=O)c3cncc(Cl)c3)ccc1C)=C2 [Compound 160, 5-chloro-N-(4-methyl-3-(2-(methylamino)-8,9-dihydroimidazo[1′,2′:1,6]pyrido[2,3-d]pyrimidin-6-yl)phenyl)nicotinamide]",> 10000
8,"CNc1ncc2c(n1)N1CCN=C1C(c1cc(NC(=O)c3cccc(C(C)(C)C#N)c3)ccc1C)=C2 [Compound 161, 3-(2-cyanopropan-2-yl)-N-(4-methyl-3-(2-(methylamino)-8,9-dihydroimidazo[1′,2′:1,6]pyrido[2,3-d]pyrimidin-6-yl)phenyl)benzamide]",< 100
9,"CNc1ncc2c(n1)N1CCN=C1C(c1cc(NC(=O)c3ccnc(C(C)(C)C#N)c3)ccc1C)=C2 [Compound 162, 2-(2-cyanopropan-2-yl)-N-(4-methyl-3-(2-(methylamino)-8,9-dihydroimidazo[1′,2′:1,6]pyrido[2,3-d]pyrimidin-6-yl)phenyl)isonicotinamide]",< 100
10,"CNc1ncc2c(n1)N1CCN=C1C(c1cc(NC(=O)c3cc(C(C)(C)C#N)ccn3)c(F)cc1C)=C2 [Compound 165, 4-(2-cyanopropan-2-yl)-N-(2-fluoro-4-methyl-5-(2-(methylamino)-8,9-dihydroimidazo[1′,2′:1,6]pyrido[2,3-d]pyrimidin-6-yl)phenyl)picolinamide]",< 100
11,"CNc1ncc2c(n1)N1CCN=C1C(c1cc(NC(=O)c3cccc(C(C)(C)O)c3)ccc1C)=C2 [Compound 170, 3-(2-hydroxypropan-2-yl)-N-(4-methyl-3-(2-(methylamino)-8,9-dihydroimidazo[1′,2′:1,6]pyrido[2,3-d]pyrimidin-6-yl)phenyl)benzamide]",< 100
12,"Cc1cc(F)c(NC(=O)c2cccc(C(F)(F)F)n2)cc1C1=Cc2cnc(NC3COC3)nc2N2CCN=C12 [Compound 179, N-(2-fluoro-4-methyl-5-(2-(oxetan-3-ylamino)-8,9-dihydroimidazo[1′,2′:1,6]pyrido[2,3-d]pyrimidin-6-yl)phenyl)-6-(trifluoromethyl)picolinamide]",100 to 10000
13,"Cc1cc(F)c(NC(=O)c2cccc(C(C)(C)C#N)c2)cc1C1=Cc2cnc(NC3COC3)nc2N2CCN=C12 [Compound 180, 3-(2-cyanopropan-2-yl)-N-(2-fluoro-4-methyl-5-(2-(oxetan-3-ylamino)-8,9-dihydroimidazo[1′,2′:1,6]pyrido[2,3-d]pyrimidin-6-yl)phenyl)benzamide]",< 100
14,"Cc1cc(F)c(NC(=O)c2cccc(C(C)(C)C#N)n2)cc1C1=Cc2cnc(NC3COC3)nc2N2CCN=C12 [Compound 182, 6-(2-cyanopropan-2-yl)-N-(2-fluoro-4-methyl-5-(2-(oxetan-3-ylamino)-8,9-dihydroimidazo[1′,2′:1,6]pyrido[2,3-d]pyrimidin-6-yl)phenyl)picolinamide]",100 to 10000
15,"CNc1ncc2c(n1)N1CCN=C1C(c1cc(NC(=O)c3cccc(C(F)(F)F)c3)ncc1C)=C2 [Compound 190, N-(5-methyl-4-(2-(methylamino)-8,9-dihydroimidazo[1′,2′:1,6]pyrido[2,3-d]pyrimidin-6-yl)pyridin-2-yl)-3-(trifluoromethyl)benzamide]",100 to 10000
16,"CNc1ncc2c(n1)N1CCN=C1C(c1cc(NC(=O)c3cc(C(F)(F)F)ccn3)cnc1C)=C2 [Compound 191, N-(6-methyl-5-(2-(methylamino)-8,9-dihydroimidazo[1′,2′:1,6]pyrido[2,3-d]pyrimidin-6-yl)pyridin-3-yl)-4-(trifluoromethyl)picolinamide]",100 to 10000
17,"CNc1ncc2c(n1)N1CCN=C1C(c1nc(NC(=O)c3cc(C(F)(F)F)ccn3)ccc1C)=C2 [Compound 192, N-(5-methyl-6-(2-(methylamino)-8,9-dihydroimidazo[1′,2′:1,6]pyrido[2,3-d]pyrimidin-6-yl)pyridin-2-yl)-4-(trifluoromethyl)picolinamide]",> 10000
18,"CNc1ncc2c(n1)N1CCN=C1C(c1cc(NC(=O)c3cn(C(C)C)c(=O)n(-c4ccc(F)cc4)c3=O)c(F)cc1C)=C2 [Compound 194, N-(2-fluoro-4-methyl-5-(2-(methylamino)-8,9-dihydroimidazo[1′,2′:1,6]pyrido[2,3-d]pyrimidin-6-yl)phenyl)-3-(4-fluorophenyl)-1-isopropyl-2,4-dioxo-1,2,3,4-tetrahydropyrimidine-5-carboxamide]",100 to 10000
19,"Cc1ccc(Nc2ncc3c(n2)N2CCN=C2C(c2cc(NC(=O)c4cccc(C(F)(F)F)c4)ccc2C)=C3)cn1 [Compound 207, N-(4-methyl-3-(2-((6-methylpyridin-3-yl)amino)-8,9-dihydroimidazo[1′,2′:1,6]pyrido[2,3-d]pyrimidin-6-yl)phenyl)-3-(trifluoromethyl)benzamide]",< 100
20,"Cc1ccc(NC(=O)c2cc(C(F)(F)F)ccn2)cc1C1=Cc2cnc(Nc3cccnc3C)nc2N2CCN=C12 [Compound 209, N-(4-methyl-3-(2-((2-methylpyridin-3-yl)amino)-8,9-dihydroimidazo[1′,2′:1,6]pyrido[2,3-d]pyrimidin-6-yl)phenyl)-4-(trifluoromethyl)picolinamide]",< 100
21,"Cc1ccncc1Nc1ncc2c(n1)N1CCN=C1C(c1cc(NC(=O)c3cc(C(F)(F)F)ccn3)ccc1C)=C2 [Compound 210, N-(4-methyl-3-(2-((4-methylpyridin-3-yl)amino)-8,9-dihydroimidazo[1′,2′:1,6]pyrido[2,3-d]pyrimidin-6-yl)phenyl)-4-(trifluoromethyl)picolinamide]",< 100
22,"Cc1ccc(Nc2ncc3c(n2)N2CCN=C2C(c2cc(NC(=O)c4cc(C(F)(F)F)ccn4)ccc2C)=C3)c(C)n1 [Compound 211, N-(3-(2-((2,6-dimethylpyridin-3-yl)amino)-8,9-dihydroimidazo[1′,2′:1,6]pyrido[2,3-d]pyrimidin-6-yl)-4-methylphenyl)-4-(trifluoromethyl)picolinamide]",< 100
23,"Cc1cc(Nc2ncc3c(n2)N2CCN=C2C(c2cc(NC(=O)c4cc(C(F)(F)F)ccn4)ccc2C)=C3)ccn1 [Compound 212, N-(4-methyl-3-(2-((2-methylpyridin-4-yl)amino)-8,9-dihydroimidazo[1′,2′:1,6]pyrido[2,3-d]pyrimidin-6-yl)phenyl)-4-(trifluoromethyl)picolinamide]",< 100
24,"Cc1cnccc1Nc1ncc2c(n1)N1CCN=C1C(c1cc(NC(=O)c3cc(C(F)(F)F)ccn3)ccc1C)=C2 [Compound 213, N-(4-methyl-3-(2-((3-methylpyridin-4-yl)amino)-8,9-dihydroimidazo[1′,2′:1,6]pyrido[2,3-d]pyrimidin-6-yl)phenyl)-4-(trifluoromethyl)picolinamide]",< 100
